For data set [1] the following is noted: administered subcutaneously; cited from earlier work.
The subject of the next data set is RINm cells. Description: Insulin secretion in RINm cells. Format: cell-based. Particulars: peptides 0-5 nM; mimetibodies 5 or 50 nM. The protocol: GLP-1 mimetibody causes insulin secretion in RINm cells. To test the effect of GLP-1 mimetibody in insulin secretion, RINm cells were treated with increasing concentrations of GLP-1 (7-36) peptide (0-5 nM) (FIG. 6A), exendin-4 peptide (0-5 nM) (FIG. 6A), or various GLP-1 mimetibodies (5 or 50 nM) and the amount of insulin secreted was measured via ELISA. All GLP-1 mimetibodys tested had activities in stimulating insulin secretion in RINm cells.

A further data set deals with T1, GLP-1R (Homo sapiens, UniProt P43220).
T1 construct: expressed in transfected cells; host or cells: HEK293
Kind of data set: FACS binding assay, HEK293 cells over-expressing GLP-1R. The following applies: 20 nM, 2 hours at 4° C. The protocol:
FACS Binding Assay. The activity of GLP-1 mimetibody was tested in an in vitro FACS binding assay. To determine whether the GLP-1 mimetibody binds GLP-1R, HEK293 cells (1×10^6 cells) over-expressing GLP-1R were incubated with GLP-1 mimetibody (20 nM) for 2 hours at 4° C. The cells were washed, and a fluorescently labeled secondary detection antibody (1 μg/mL goat anti-human IgG, Fc gamma specific) was added for 30 minutes at 4° C. The fluorescence intensity of the cells was monitored via flow cytometry.
For orientation: Flow cytometry measures light scatter and fluorescence of single cells or particles in a stream.

The next data set has as its system control HEK293 cells. Description: FACS binding assay, control HEK293 cells. Particulars: 20 nM, 2 hours at 4° C.
A further data set addresses T2, DPP-IV (Homo sapiens, UniProt P27487).
T2 construct: purchased R&D Systems
Kind of data set: DPP-IV cleavage assay. It counts as in vitro ADME. The following applies: 1.2 nM, DPP-IV 1 μg/mL, room temperature, 0-40 minutes. As for the experimental part:
DPP-IV cleavage assay. Since GLP-1 is rapidly inactivated by DPP-IV, an in vitro assay was established to quantitate intact (i.e. uncleaved) GLP-1 mimetibody. Briefly, GLP-1 mimetibody or peptide (1.2 nM) was incubated at room temperature with DPP-IV (1 μg/mL, R&D Systems). After various times (0, 5, 10, 15, 20, 30, 40 minutes), a DPP-IV inhibitor (100 μM, Linco) was added to quench the reaction. The amount of intact GLP-1 mimetibody or peptide was measured using the GLP-1 Active ELISA (Linco) and the GLP-1 mimetibody or peptides for the respective standard curves.

Data set [2] is described as follows: Human serum stability assay. Format: in vitro ADME. The following applies: 30 nM, 37° C. The protocol:
Human Serum stability assay. The stability of the GLP-1 mimetibody in serum was also measured to ensure that other serum proteases were not able to cleave and inactivate the GLP-1 mimetibody. Briefly, GLP1 peptide or the GLP1 mimetibody (30 nM) was incubated in human serum at 37° C. After various times, samples were evaluated to determine the amount of intact peptide or mimetibody. The reactions were quenched with a DPP-IV inhibitor (100 μM, Linco), and the samples were analyzed using the GLP-1 Active ELISA from Linco.

In the next data set the test system is db/db mice. Kind of data set: Fasting blood glucose in db/db mice. It counts as in vivo. The protocol:
GLP-1 mimetibody lowers glucose level in db/db mice. […] Blood glucose was monitored 0.5, 1, 2, 3, and 4 hours post-dosing. […] In addition, consistent with the mechanism of action for GLP-1, the maximum glucose lowering effect achieved at 0.19 nmol was not enhanced by a higher dose of the GLP-1 mimetibody (1.9 nmol). The maximum glucose lowering effect maintained blood glucose values within the normal range.

Where no end group is shown, it is not given here.

T1 sequence (P43220 24-463, species assumed): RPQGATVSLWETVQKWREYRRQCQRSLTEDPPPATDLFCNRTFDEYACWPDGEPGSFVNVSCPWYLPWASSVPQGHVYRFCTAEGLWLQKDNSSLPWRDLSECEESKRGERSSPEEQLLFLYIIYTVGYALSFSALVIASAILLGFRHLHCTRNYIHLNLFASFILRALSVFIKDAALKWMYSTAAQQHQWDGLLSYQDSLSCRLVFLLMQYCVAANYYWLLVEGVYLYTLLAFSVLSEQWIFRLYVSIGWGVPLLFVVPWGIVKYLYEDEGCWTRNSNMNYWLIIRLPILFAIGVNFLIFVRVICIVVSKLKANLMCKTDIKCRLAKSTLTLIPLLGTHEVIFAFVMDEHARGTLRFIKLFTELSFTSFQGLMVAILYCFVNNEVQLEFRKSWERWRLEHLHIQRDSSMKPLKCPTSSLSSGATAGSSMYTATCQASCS
T2 sequence (P27487 whole entry, species assumed): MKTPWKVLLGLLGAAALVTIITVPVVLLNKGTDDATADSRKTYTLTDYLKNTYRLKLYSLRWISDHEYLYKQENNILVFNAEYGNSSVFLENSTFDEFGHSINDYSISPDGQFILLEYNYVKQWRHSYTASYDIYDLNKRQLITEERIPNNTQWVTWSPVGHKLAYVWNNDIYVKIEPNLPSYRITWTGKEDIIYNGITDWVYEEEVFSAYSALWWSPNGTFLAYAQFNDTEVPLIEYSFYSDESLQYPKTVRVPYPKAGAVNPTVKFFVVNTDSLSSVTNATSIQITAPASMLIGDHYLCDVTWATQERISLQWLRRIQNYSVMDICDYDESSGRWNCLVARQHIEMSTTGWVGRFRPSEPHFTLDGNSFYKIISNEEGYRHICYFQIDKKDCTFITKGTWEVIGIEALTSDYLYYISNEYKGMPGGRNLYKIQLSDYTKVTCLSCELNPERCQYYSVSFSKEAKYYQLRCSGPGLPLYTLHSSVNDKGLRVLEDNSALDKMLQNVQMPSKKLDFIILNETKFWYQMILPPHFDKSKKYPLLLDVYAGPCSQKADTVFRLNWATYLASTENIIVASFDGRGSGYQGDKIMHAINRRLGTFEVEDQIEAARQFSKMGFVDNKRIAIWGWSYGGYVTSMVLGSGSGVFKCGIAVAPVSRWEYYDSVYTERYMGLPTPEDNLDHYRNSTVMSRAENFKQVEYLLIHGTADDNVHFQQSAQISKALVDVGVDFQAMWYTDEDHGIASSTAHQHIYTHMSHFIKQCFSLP

GLP-1 (7-36) amide: GLP-1 (7-36) amide: the time action entry in data set [1] is on record as “about 50 minutes”.
With “GLP-1 (7-36) peptide: wild-type GLP-1 (7-36) peptide (HAEGTFTSDVSSYLEGQAAKEFIAWLVKGR; ends and bridges not checked; UniProt P01275 98-127, looked up, fragment)”, the “stimulation of insulin secretion in RINm cells” value in the data set with RINm cells is “stimulates insulin release in RINm cells”.
In the case of “GLP-1 mimetibody: GLP-1 peptide (7-36), Gly-Ser linker, J region, IgG1 hinge, CH2 and CH3 construct (SEQ ID NO:2)”, in the data set with GLP-1R, the “binding to HEK293 cells over-expressing GLP-1R (FACS)” value was “binds to HEK293 cells over-expressing GLP-1R”. For the same substance, the “binding to control HEK293 cells (FACS)” value in the data set on control HEK293 cells is “not to control HEK293 cells”. Further, the “resistance to cleavage by DPP-IV relative to the GLP-1 peptide” value with DPP-IV is “significantly more resistant to cleavage by DPP-IV”. In addition, the “remained intact in human serum after 24 hours” value in data set [2] is on record as over 90%. In addition, the “lowering of fasting blood glucose compared to control animals” value with db/db mice (doses ranging from 0.019 to 1.9 nmol) is “effective in lowering the fasting blood glucose”. Further, the “dose at which maximum glucose lowering effect was achieved” value in the data set with db/db mice (not enhanced by 1.9 nmol) was found to be 0.19 nmol.
As to “GLP-1 peptide: GLP-1 peptide used as comparator [reference compound]”, in the data set on db/db mice (db/db mice fasted two hours, intravenous, mimetibody dose 100-fold lower than peptide dose), the “blood glucose over 4 hours post-dosing” value is “lowered blood glucose at 30 minutes, but by 60 minutes, the blood glucose began to increase again”.
Take “exendin-4 peptide: exendin-4 peptide, positive control”: the “stimulation of insulin secretion in RINm cells” value with RINm cells is on record as “stimulates insulin release in RINm cells”.

(Values after patent US20070128193A1, “GLP-1 agonists, compositions, methods and uses” (priority 2004, published 2007).)
